Results: patent US12398196B2, “Fused polypeptide with multifunctional activities and use thereof” (NANJING ANJI BIOLOGICAL TECHNOLOGY CO., LTD., priority 2019, dated 2025)
Ends that are not written are not given here.

Columns and labels:
[1] = tested on: SD rats with CCl4-induced hepatic fibrosis; assay: CCl4-induced hepatic fibrosis animal model; assay type: in vivo; conditions: CCl4 8 weeks, polypeptides 6 mg/kg s.c. once a day, colchicine intragastric 5 times/week
Procedure: Source and strain: SPF level, SD rats, provided by Shanghai Xipuer-Bikai laboratory Animal Co., Ltd. (laboratory animal license: SCXK (hu) 2013-0016)
There were 10 rats in each group. Modeling was performed on the rats. Each group other than the blank group was injected with 40% CCl4 intraperitoneally twice a week, the first injection was performed at 3 mL/kg, and then administration was performed at 2 mL/kg. Administration was performed for 8 weeks, and a total of 16 injections were provided to induce hepatic fibrosis. After the intraperitoneal injection of CCl4 for the fourth time, polypeptide therapy was started on the next day, and administration was performed by subcutaneous injection once a day until the end of induction. After the intraperitoneal injection of CCl4 for the fourth time, colchicine was administrated on the next day at 200 μg/kg, 5 times a week, and intragastric administration therapy was implemented. After induction for 8 weeks, the administration was stopped. On the second day, the SD rats were dissected, blood was taken, and the liver tissue was taken and stored in a refrigerator at −80° C. for later use. The expressions of AST and ALT in serum and HYP in the rat liver tissue were detected.

[2] = tested on: SD rats with bleomycin-induced pulmonary fibrosis; assay: Bleomycin-induced pulmonary fibrosis animal model; assay type: in vivo; conditions: for Survival rate (%): bleomycin 5 mg/kg intratracheal, polypeptides 10 mg/kg subcutaneous twice a day for 14 days, positive drug Nintedanib intragastric once a day, model group 57.1%; for content of HYP in lung tissues, difference from model group / content of TGF-β1 in serum, difference from model group: polypeptides 10 mg/kg s.c. twice a day, Nintedanib 25 mg/kg intragastric once a day, 14 days
Procedure: Source and strain: clean SD rats, provided by Comparative Medicine Center of Yangzhou University (laboratory animal production license: SCXK (Su) 2012-0004); Certification of Using of Laboratory Animal: SYXK (Su) 2012-0035).
SD rats were anesthetized by intraperitoneal injection of 1 mL/100 g 4% chloral hydrate. After anesthesia, the rats were fixed and their necks were disinfected by using cotton with 75% alcohol. The skin of the rat neck was longitudinally cut with scissors, and the fascia and muscle were longitudinally bluntly torn with tweezers to expose the trachea. A syringe was inserted into the trachea to inject 5 mg/kg bleomycin, while a blank group was injected with an equal amount of normal saline. Then a rat plate was quickly erected and rotated, the rats' breathing was observed, the neck wound was sterilized after rotation and was sewn, and an amoxicillin anti-inflammatory drug was sprinkled on the suture. After the operation, the rats were put back into a dry and clean cage for resting, waiting was performed for awakening. The rats were awakened after about 1-2 hours, and then fed normally. On the 7th day after modeling, modeling group animals randomly fell into a model group, a Nintedanib positive drug group, polypeptide I, II, III and IV dosage groups, and a normal control group, and the groups were administered separately for an administration cycle of 14 days. Living situations of rats were observed every day and their weights were weighed. After administration for 14 days, the eyeballs were removed and blood was taken, the rats were dissected, and lungs were taken. The content of TGF-β1 in serum and the content of HYP in lung tissues were detected.

[3] = tested on: Chlamydia pneumoniae; assay: Mouse pneumonia model, chlamydia pneumonia; assay type: in vivo, BALB/C mice; set-up: unit not given here; conditions: nasal drip, average values + standard deviation
Source text: (§1) A mouse pneumonia model was successfully established by using a nasal drip method. BALB/C mice with a body weight of 18-24 g were selected, and then anesthetized with ether on day 0, day 1 and day 2, respectively, prepared Streptococcus pneumoniae bacteria solution, adenovirus concentrated solution, Mycoplasma pneumoniae, Chlamydia pneumoniae, protozoa and pneumonia fungi were slowly dropped into the nasal cavity of the mice, so that the bacteria solutions entered the trachea and bronchi, and the bacteria solutions were prevented from flowing into the esophagus during the operation to avoid inactivation of the bacteria solutions, so that the mouse pneumonia model was established. After the model was successfully established, the polypeptide according to the present disclosure was administered, as shown in FIG. 9 and Table 7. […] The experimental results are represented on the basis of average values+standard deviation.

[4] = tested on: SD rats with renal fibrosis; assay: Renal fibrosis model (ureter ligation); assay type: in vivo; conditions: 6 mg/kg s.c. twice a day, 14 days
Procedure: Clean grade male SD rats, purchased from Nanjing Qinglong Mountain Animal Farm, and weighed 180-200 g at the time of purchase, 190-210 g at the beginning of modeling, and 180-200 g at the beginning of administration.
A renal fibrosis animal model was established. SD rats were anesthetized with 4% chloral hydrate, injected with 1 mL/100 g intraperitoneally, fixed to an operation board, and sterilized in an operation area for later use. […] Muscular layers and abdominal walls were sewed layer by layer, the suture was disinfected with alcohol. After SD rats woke up, the rats were put into a cage for feeding. In the blank group, ureter was not ligated, and other steps were the same.
Then, the animals fell into a blank group, a model group, and polypeptide administration groups, with 10 animals in each group, and the administration was started on the second day after the operation, and was performed for 14 days. After administration for 14 days, blood was taken and supernatant was taken to detect the content of TGF-β1 in serum.

[5] = tested on: multiple pulmonary infections; assay: Mouse pneumonia model, pneumonia caused by pulmonary infections; assay type: in vivo, BALB/C mice; set-up: unit not given here; conditions: nasal drip, average values + standard deviation
Source text: as §1

[6] = tested on: mice with skin fibrosis; assay: Bleomycin-induced skin fibrosis model; assay type: in vivo, C57/BL black mice; conditions: C57/BL mice, bleomycin s.c. 28 days; 10 mg/kg s.c. twice a day
Procedure: Male C57/BL black mice aged 6-8 weeks, purchased from Nanjing Qinglong Mountain Animal Farm. Bleomycin (10 μg/mL) was injected subcutaneously every day for 28 days to form skin fibrosis. During the modeling period, the administration groups were given polypeptide drugs twice a day for treatment. After modeling, the mice were killed on the next day, and the skin tissue of the mouse back was taken to detect the content of HYP in the skin tissue. [table]

[7] = tested on: pneumonia fungi; assay: Mouse pneumonia model, fungal pneumonia; assay type: in vivo, BALB/C mice; set-up: unit not given here; conditions: nasal drip, average values + standard deviation
Source text: as §1

[8] = tested on: mice with myocardial fibrosis; assay: Isoprenaline-induced myocardial fibrosis model; assay type: in vivo; conditions: BALB/c mice, isoprenaline 5 mg/kg 7 days; 12 mg/kg s.c. twice a day
Procedure: 1. Experimental Mice: 10-Week-Old Male BALB/c Mice (with an Average Weight of 20 g).
In the model group, the experimental mice were injected with isoprenaline (ISO) (5 mg/kg) subcutaneously on the back of the mice every day for 7 consecutive days, and the mice were injected with normal saline subcutaneously (200 μL/mouse) every day. In the blank group, normal saline was injected subcutaneously (200 μL/mouse) every day. While a model was made, polypeptide drugs were administrated for treatment by subcutaneous injection. After the 8th day, blood was taken and was centrifuged, the supernatant was taken, and the content of TGF-β1 in serum was detected.

[9] = tested on: adenovirus; assay: Mouse pneumonia model, viral pneumonia; assay type: in vivo, BALB/C mice; set-up: unit not given here; conditions: nasal drip, average values + standard deviation
Source text: as §1

[10] = tested on: Mycoplasma pneumoniae; assay: Mouse pneumonia model, mycoplasma pneumonia; assay type: in vivo, BALB/C mice; set-up: unit not given here; conditions: nasal drip, average values + standard deviation
Source text: as §1

[11] = tested on: Streptococcus pneumoniae; assay: Mouse pneumonia model, bacterial pneumonia; assay type: in vivo, BALB/C mice; set-up: unit not given here; conditions: nasal drip, average values + standard deviation
Source text: as §1

[12] = tested on: protozoa; assay: Mouse pneumonia model, protozoal pneumonia; assay type: in vivo, BALB/C mice; set-up: unit not given here; conditions: nasal drip, average values + standard deviation
Source text: as §1

[13] = bleomycin-induced pulmonary fibrosis

Compound | content of ALT in serum, difference from model group [1] | content of AST in serum, difference from model group [1] | content of HYP in the liver tissue, difference from model group [1] | Survival rate (%) [2] [%] | content of HYP in lung tissues, difference from model group [2, 13] | content of TGF-β1 in serum, difference from model group [2, 13] | Inhibitory effect on pulmonary infections: Chlamydia pneumonia [3] | content of TGF-β1 in serum, difference from model group [4] | Inhibitory effect on pulmonary infections: Pneumonia caused by pulmonary infections [5] | content of HYP in the skin tissue, difference from model group [6] | Inhibitory effect on pulmonary infections: Fungal pneumonia [7] | content of TGF-β1 in serum, difference from model group [8] | Inhibitory effect on pulmonary infections: Viral pneumonia [9] | Inhibitory effect on pulmonary infections: Mycoplasma pneumonia [10] | Inhibitory effect on pulmonary infections: Bacterial pneumonia [11] | Inhibitory effect on pulmonary infections: Protozoal pneumonia [12] | reduction of HYP in lung tissues compared with the positive drug ([2]; bleomycin-induced pulmonary fibrosis, comparison with Nintedanib)
COc1cc2c(c(OC)c1OC)-c1ccc(OC)c(=O)cc1[C@@H](NC(C)=O)CC2 [Colchicine, reference compound] | significantly lower than those in the model group | highly significantly different from the model group (** P<0.01) | highly significantly different from the model group (*** P<0.001) | – | – | – | – | – | – | – | – | – | – | – | – | – | –
COC(=O)c1ccc2c(c1)NC(=O)/C2=C(\Nc1ccc(N(C)C(=O)CN2CCN(C)CC2)cc1)c1ccccc1 [Nintedanib, reference compound] | – | – | – | 85.7 | highly significantly different from the model group (** P<0.01) | highly significantly different from the model group (*** P<0.001) | – | – | – | – | – | – | – | – | – | – | –
PRCWCGEGGGGIVRRADRAAVPGGGGRGD (cysteine pairing not given here) [Polypeptide III] | – | highly significantly different from the model group (*** P<0.001) | highly significantly different from the model group (*** P<0.001) | 85.7 | significantly different from the model group (*P<0.05) | highly significantly different from the model group (*** P<0.001) | 56.40 ± 5.49 | highly significantly different from the model group (** P<0.01) | 56.81 ± 3.13 | highly significantly different from the model group (*P<0.05) | 62.88 ± 5.94 | highly significantly different from the model group (** P<0.01) | 67.49 ± 9.94 | 43.93 ± 5.53 | 47.29 ± 8.76 | 64.29 ± 8.70 | –
PRCWRGEGGGGIAVVRRADRAPGGGGRGD [Polypeptide I] | – | highly significantly different from the model group (*** P<0.001) | highly significantly different from the model group (*** P<0.001) | 85.7 | highly significantly different from the model group (*** P<0.001) | highly significantly different from the model group (*** P<0.001) | 37.18 ± 7.46 | highly significantly different from the model group (*** P<0.001) | 47.52 ± 7.88 | highly significantly different from the model group (** P<0.01) | 47.54 ± 9.68 | highly significantly different from the model group (** P<0.01) | 50.00 ± 6.84 | 36.48 ± 5.55 | 34.83 ± 7.95 | 48.16 ± 5.46 | better effects than the positive drug
PRCYCGEGGGGIVRRADRAAVPGGGGRGD (cysteine pairing not given here) [Polypeptide IV] | – | highly significantly different from the model group (*** P<0.001) | highly significantly different from the model group (*** P<0.001) | 92.9 | highly significantly different from the model group (** P<0.01) | highly significantly different from the model group (** P<0.01) | 45.86 ± 5.22 | highly significantly different from the model group (*** P<0.001) | 50.99 ± 6.88 | highly significantly different from the model group (*P<0.05) | 53.22 ± 4.14 | highly significantly different from the model group (*P<0.05) | 70.33 ± 9.27 | 41.20 ± 7.30 | 43.69 ± 8.66 | 62.16 ± 3.28 | –
Penicillin [reference compound] | – | – | – | – | – | – | 32.57 ± 3.13 | – | 39.56 ± 4.35 | – | 36.87 ± 2.82 | – | 48.07 ± 2.07 | 39.78 ± 5.23 | 37.05 ± 4.35 | 40.34 ± 3.02 | –
